Source: patent US20240140941A1, “DERIVATIVE OF 2,5-DIKETOPIPERAZINE COMPOUND, AND PREPARATION METHOD THEREFOR, PHARMACEUTICAL COMPOSITION THEREOF AND USE THEREOF” (DALIAN WZ PROBIOTICS AD HEALTH CO., LTD, priority 2020, published 2024)
Structures can show the parent of a compound that is named as a salt. Where two headings read alike, the source gives them in different places.

Legend:
BxPC-3 = experiment: Inhibition test on cell proliferation (MTT), BxPC-3; assay type: cell-based, human; details: 72 hours of drug treatment, MTT, read-out: IC50 (nM) BxPC-3
Method in brief: (§1)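 Cells plated at 2000-6000 per well, allowed to adhere for 24 h, then exposed to serially diluted compound for 72 h at 37 °C, 5% CO2. Viability read by MTT reduction, with formazan dissolved in DMSO and absorbance taken at 490 nm. Inhibition rate calculated relative to untreated and zero-setting wells.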

HCC-LM3 = experiment: Inhibition test on cell proliferation (MTT), HCC-LM3; assay type: cell-based, human; details: 72 hours of drug treatment, MTT, read-out: IC50 (nM) HCC-LM3
Method: (§2) Tumor cells (NCI-H460, BxPC-3, HT-29, HCC-LM3) in the logarithmic growth phase were digested, centrifuged, and the supernatants were removed. Cells were resuspended by adding fresh culture medium, and counted using a cell counting plate. 100 μL of culture medium (containing cells) was added to a 96-well plate according to the standard of 2000 to 6000 cells per well and incubated in an incubator (37° C., 5% CO2) for 24 hours. After the cells were completely adhered to the wall, the test sample and Plinabulin were diluted to different concentrations using fresh culture medium, and 4 wells were set for each concentration. After 72 hours of drug treatment, the culture medium was removed, and 20 μL of MTT at a concentration of 5 mg/mL was added to each well. After 3-4 hours in the incubator, the MTT was discarded, and 100 μL of DMSO was added to each well, and placed in a 96-well plate shaker to completely dissolve the purple formazan. Subsequently, the absorbance (OD value) was detected at a wavelength of 490 nm using a microplate reader. The experiment also required setting up zero-setting wells (blank culture medium, MTT, DMSO). Cell inhibition rate=1−(OD value of drug-dosed group−OD value of zero-setting group)/(OD value of blank group−OD value of zero-setting group)×100%.

HT-29 = experiment: Inhibition test on cell proliferation (MTT), HT-29; assay type: cell-based, human; details: 72 hours of drug treatment
Method: as §2

[1] = Compound solubility experiment, Method 1: equilibrium solubility in pure water, LC-MS; assay type: physicochemical; details: ultrapure water, 37±1° C., shaken 24 hours; for solubility at 24 h: 37 °C, thermodynamic from solid
Method: Method 1: A 1.5 mL brown EP tube was taken, about 1 mg of compound was weighed respectively, and 1 mL of ultrapure water was added thereto. The mixture was vortexed, and sonicated until the compound was no longer dissolved (the solution was turbid or had suspended particles). The mixture was put into an incubation shaker, maintained at a temperature of (37±1° C.), shaken at 100 r/min for 24 hours, so as to achieve full dissolution equilibrium. After 24 hours, the supernatant was quickly filtered through a 0.45 μm microporous membrane, and the initial filtrate was discarded. 200 μL of the renewed filtrate was taken and diluted with 200 μL of methanol. The assay was repeated at least three times. According to the chromatographic conditions, the sample was injected by LC-MS, and the peak area was measured and the equilibrium solubility of each 2,5-diketopiperazine derivative in pure water was calculated.

NCI-H460 = experiment: Inhibition test on cell proliferation (MTT), NCI-H460; assay type: cell-based, human; details: 72 hours of drug treatment, MTT, read-out: IC50 (nM) NCI-H460
Method in brief: as §1

Row | Compound | IC50 (BxPC-3; Homo sapiens, BXPC-3, 72 h) [nM] | IC50 (HCC-LM3; Homo sapiens, HCCLM3, 72 h) [nM] | IC50 (HT-29; Homo sapiens, HT-29, 72 h) [nM] | melting point [°C] | solubility at 24 h [1] [µg/mL] | IC50 (NCI-H460; Homo sapiens, NCI-H460, 72 h) [nM] | Solubility [1] [µg/mL] | IC50 (BxPC-3) [nM] | IC50 (HCC-LM3) [nM] | IC50 (HT-29) [nM] | IC50 (NCI-H460) [nM]
1 | CC(C)c1c(/C=c2\[nH]c(=O)/c(=C/c3cc(F)ccc3F)[nH]c2=O)ncn1CCCN1CCOCC1 [PLN-2-7, (3Z,6Z)-3-(2,5-difluorophenyl)methylene-6-((5-isopropyl-1-(3-morpholinyl)propylimidazol-4-yl)methylene)piperazine-2,5-dione] | 4.92 ± 1.48 | 3.3 ± 1.88 | 4.03 ± 0.19 | 211.6 to 213.6 | < 0.5 | 6.12 ± 0.43 | – | – | – | – | –
2 | O=C(c1ccc(F)cc1)c1cccc(/C=c2\[nH]c(=O)/c(=C/c3ncn(CCCN4CCOCC4)c3C3CC3)[nH]c2=O)c1 [PLN-2-3] | 1.43 ± 0.95 | 6.31 ± 0.16 | 2.15 ± 0.33 | – | < 0.25 | 4.9 ± 0.61 | – | – | – | – | –
3 | O=c1[nH]/c(=C\c2ncn(CCCN3CCOCC3)c2C2CC2)c(=O)[nH]/c1=C\c1cccc(Oc2ccc(F)cc2)c1 [PLN-2-4] | – | – | – | – | < 0.5 | 25.7 ± 2.62 | – | – | – | – | –
4 | CC(C)c1c(/C=c2\[nH]c(=O)/c(=C/c3ccccc3)[nH]c2=O)ncn1CCCN1CCOCC1 [PLN-2-5, (3Z,6Z)-3-benzylidene-6-((5-isopropyl-1-(−3-morpholinyl)propylimidazol-4-yl)methylene)piperazine-2,5-dione] | 12.5 ± 1.47 | 9.78 ± 2.21 | 11.8 ± 1.31 | 199.1 to 201.1 | < 0.5 | 19.4 ± 1.63 | – | – | – | – | –
5 | CC(C)c1c(/C=c2\[nH]c(=O)/c(=C/c3ccc(F)c(F)c3)[nH]c2=O)ncn1CCCN1CCOCC1 [PLN-2-63] | 55.3 ± 3.42 | 64.9 ± 5.12 | – | – | < 0.5 | 72.2 ± 4.86 | – | – | – | – | –
6 | CC(C)(C)c1[nH]cnc1/C=c1\[nH]c(=O)/c(=C/c2ccccc2)[nH]c1=O [Plinabulin hydrochloride, reference compound] | – | – | – | – | – | – | 7.654 | – | – | – | –
7 | CC(C)c1c(/C=c2\[nH]c(=O)/c(=C/c3cccc(Oc4ccc(F)cc4)c3)[nH]c2=O)ncn1CCCN1CCOCC1 [PLN-2-2] | – | – | – | 194 to 195 | < 0.5 | 5.25 ± 0.49 | – | 4.63 ± 0.16 | 5.58 ± 1.03 | 3.83 ± 0.43 | –
8 | CC(C)c1c(/C=c2\[nH]c(=O)/c(=C/c3cccc(C(=O)c4ccc(F)cc4)c3)[nH]c2=O)ncn1CCCN1CCOCC1 [PLN-2-1, (3Z,6Z)-3-(3-(p-fluorobenzoyl)phenyl)methylene-6-((5-isopropyl-1-(3-morpholinyl)propylimidazol-4-yl)methylene)piperazine-2,5-dione] | – | – | – | – | < 0.5 | – | – | 2.29 ± 0.82 | 4.2 ± 0.12 | 1.03 ± 0.11 | 3.45 ± 0.33
9 | C=CC(=O)N1CCN(CCCn2cnc(/C=c3\[nH]c(=O)/c(=C/c4cccc(F)c4)[nH]c3=O)c2C(C)C)CC1 [PLN-2-61-1] | – | – | – | 238.6 to 240.6 | – | – | – | 9.37 ± 0.78 | 16.5 ± 5.66 | 14 ± 0.58 | 16.9 ± 1.29
10 | CC(C)c1c(/C=c2\[nH]c(=O)/c(=C/c3cccc(OC(F)(F)F)c3)[nH]c2=O)ncn1CCCN1CCOCC1 [PLN-2-53, (3Z,6Z)-3-(3-Tifluoromethoxyphenyl)methylene-6-((5-isopropyl-1-(3-morpholinyl)propylimidazol-4-yl)methylene)piperazine-2,5-dione] | 7.17 ± 0.52 | 6.55 ± 1.39 | 9.71 ± 0.74 | 251 to 253 | – | 11.6 ± 1.11 | – | – | – | – | –
11 | CC(C)c1c(/C=c2\[nH]c(=O)/c(=C/c3cccc(F)c3)[nH]c2=O)ncn1CCCN1CCO[C@@H](C)C1 [PLN-2-57, (3Z,6Z)-3-(3-Fluorophenyl)methylene-6-(5-isopropyl-1-(3-((S)-2-methylmorpholinyl)propylimidazol-4-yl)methylene)piperazine-2,5-dione] | 8.56 ± 0.01 | 13.9 ± 2.5 | – | 211 to 213 | – | 16.6 ± 4.94 | – | – | – | 5.07 ± 2.12 | –
12 | CC(C)c1c(/C=c2\[nH]c(=O)/c(=C/c3cc(F)cc(F)c3)[nH]c2=O)ncn1CCCN1CCOCC1 [PLN-2-62] | 3.44 ± 0.12 | 3.89 ± 0.16 | 3.49 ± 0.23 | – | < 0.5 | 4.17 ± 0.75 | – | – | – | – | –
13 | Cc1ccccc1/C=c1\[nH]c(=O)/c(=C/c2ncn(CCCN3CCOCC3)c2C(C)C)[nH]c1=O [PLN-2-49, (3Z,6Z)-3-(2-Methylphenyl)methylene-6-((5-isopropyl-1-(3-morpholinyl)propylimidazol-4-yl)methylene)piperazine-2,5-dione] | 27.3 ± 2.75 | 18.4 ± 1.42 | 35.2 ± 2.15 | 169 to 171 | – | 33.7 ± 0.7 | – | – | – | – | –
14 | O=c1[nH]/c(=C\c2ncn(CCCN3CCOCC3)c2C2CC2)c(=O)[nH]/c1=C\c1cccc(F)c1 [PLN-2-10, (3Z,6Z)-3-m-fluorophenylmethylene-6-((5-cyclopropyl-1-(−3-morpholinyl)propylimidazol-4-yl)methylene)piperazine-2,5-dione] | 8.97 ± 0.74 | 14.9 ± 0.22 | 10.6 ± 1.27 | – | < 0.5 | 17.7 ± 5.18 | – | – | – | – | –
15 | CC(C)c1c(/C=c2\[nH]c(=O)/c(=C/c3cccc(F)c3)[nH]c2=O)ncn1CCCN1CCOCC1 [PLN-2-9, (3Z,6Z)-3-fluorophenylmethylene-6-((5-isopropyl-1-(−3-morpholinyl)propylimidazol-4-yl)methylene)piperazine-2,5-dione] | 5.47 ± 0.57 | 5.13 ± 0.12 | 4.37 ± 0.62 | – | < 0.5 | 8.51 ± 0.1 | – | – | – | – | –
16 | C=CC(=O)N1CCN(CCCn2cnc(/C=c3\[nH]c(=O)/c(=C/c4cccc(F)c4)[nH]c3=O)c2C(C)C)CC1 [PLN-2-61, (3Z,6Z)-3-(3-Fluorophenyl)methylene-6-(5-isopropyl-1-(3-(4-(acryloyl)piperazinyl)propylimidazol-4-yl)methylene)piperazine-2,5-dione] | 8 ± 1.15 | 31.2 ± 6.92 | 14.1 ± 0.22 | 182 to 184 | – | 19.6 ± 2.15 | – | – | – | – | –
